Test results reported in paper PMC5218480 (PLoS ONE, 2017).

Tested on: MV-4-11 cells
Test: Gene expression microarray analysis (Affymetrix PrimeView) and GSEA
Format: cell-based, human
Set-up: RFU PODN (11730768_x_at) / Fold change /veh PODN (11730768_x_at) / RFU LINC00158 (11744669_a_at) / Fold change /veh LINC00158 (11744669_a_at) / RFU DUSP10 (11751237_a_at) / Fold change /veh DUSP10 (11751237_a_at) / RFU ID3 (11757404_x_at) / Fold change /veh ID3 (11757404_x_at) / RFU PLEKHG5 (11737974_s_at) / Fold change /veh PLEKHG5 (11737974_s_at) / RFU LRRC4B (11730491_at) / Fold change /veh LRRC4B (11730491_at) / RFU GIMAP4 (11747438_a_at) / Fold change /veh GIMAP4 (11747438_a_at) / RFU KRT8 (11758183_x_at) / Fold change /veh KRT8 (11758183_x_at) / RFU CNN1 (11734310_a_at) / Fold change /veh CNN1 (11734310_a_at) / RFU VPS37D (11726825_at) / Fold change /veh VPS37D (11726825_at) / RFU C10orf10 (11716522_x_at) / Fold change /veh C10orf10 (11716522_x_at) / RFU KIR2DL2 /// KIR2DL4 /// KIR2DL5A /// KIR2DL5B /// KIR2DS1 /// KIR2DS2 /// KIR2DS3 /// KIR2DS4 /// KIR3DL3 /// KIR3DL3 /// KIR3DS1 (11738374_at) / Fold change /veh KIR2DL2 /// KIR2DL4 /// KIR2DL5A /// KIR2DL5B /// KIR2DS1 /// KIR2DS2 /// KIR2DS3 /// KIR2DS4 /// KIR3DL3 /// KIR3DL3 /// KIR3DS1 (11738374_at) / RFU C1QL1 (11718748_at) / Fold change /veh C1QL1 (11718748_at) / RFU TMPRSS4 (11747572_a_at) / Fold change /veh TMPRSS4 (11747572_a_at) / RFU HAMP (11756126_x_at) / Fold change /veh HAMP (11756126_x_at) / RFU RNFT2 (11725882_a_at) / Fold change /veh RNFT2 (11725882_a_at) / RFU NR4A2 (11747474_a_at) / Fold change /veh NR4A2 (11747474_a_at) / RFU ABCC12 (11746883_a_at) / Fold change /veh ABCC12 (11746883_a_at) / RFU TMEM136 (11760407_x_at) / Fold change /veh TMEM136 (11760407_x_at) / RFU CLDN22 /// WWC2 (11732394_at) / Fold change /veh CLDN22 /// WWC2 (11732394_at) / RFU HLA-DPB1 (11760878_x_at) / Fold change /veh HLA-DPB1 (11760878_x_at) / RFU SPINT1 (11716480_a_at) / Fold change /veh SPINT1 (11716480_a_at) / RFU GAP43 (11754022_s_at) / Fold change /veh GAP43 (11754022_s_at) / RFU A4GNT (11735810_at) / Fold change /veh A4GNT (11735810_at) / RFU PRB3 (11715151_x_at) / Fold change /veh PRB3 (11715151_x_at) / RFU TUBB4B (11761932_at) / Fold change /veh TUBB4B (11761932_at) / RFU CAPN14 (11732068_a_at) / Fold change /veh CAPN14 (11732068_a_at) / RFU TMCC2 (11721928_a_at) / Fold change /veh TMCC2 (11721928_a_at) / RFU IRGQ (11745062_a_at) / Fold change /veh IRGQ (11745062_a_at) / RFU FAM174B (11720279_a_at) / Fold change /veh FAM174B (11720279_a_at) / RFU TMPRSS4 (11748680_a_at) / Fold change /veh TMPRSS4 (11748680_a_at) / RFU FAM212B (11763350_a_at) / Fold change /veh FAM212B (11763350_a_at) / RFU PLEKHG5 (11743358_a_at) / Fold change /veh PLEKHG5 (11743358_a_at) / RFU ZSCAN30 (11745921_a_at) / Fold change /veh ZSCAN30 (11745921_a_at) / RFU CMKLR1 (11741424_a_at) / Fold change /veh CMKLR1 (11741424_a_at) / RFU LOC101060620 /// MAPK8IP1 (11723275_at) / Fold change /veh LOC101060620 /// MAPK8IP1 (11723275_at) / RFU SPTSSB (11747773_x_at) / Fold change /veh SPTSSB (11747773_x_at) / RFU PRSS12 (11739890_at) / Fold change /veh PRSS12 (11739890_at) / RFU BIN1 (11741810_x_at) / Fold change /veh BIN1 (11741810_x_at) / RFU WNT11 (11732464_a_at) / Fold change /veh WNT11 (11732464_a_at) / RFU C10orf10 (11716521_a_at) / Fold change /veh C10orf10 (11716521_a_at) / RFU C5orf56 (11738089_at) / Fold change /veh C5orf56 (11738089_at) / RFU CYB561 (11721691_x_at) / Fold change /veh CYB561 (11721691_x_at) / RFU ANKRD19P (11752326_a_at) / Fold change /veh ANKRD19P (11752326_a_at) / RFU OR2T12 /// OR2T33 /// OR2T8 (11738714_s_at) / Fold change /veh OR2T12 /// OR2T33 /// OR2T8 (11738714_s_at) / RFU VCAN (11748164_a_at) / Fold change /veh VCAN (11748164_a_at) / RFU JSRP1 (11732532_at) / Fold change /veh JSRP1 (11732532_at) / RFU KRTAP10-11 (11738290_x_at) / Fold change /veh KRTAP10-11 (11738290_x_at) / RFU MYO3A (11730013_a_at) / Fold change /veh MYO3A (11730013_a_at) / RFU EBF3 (11725865_a_at) / Fold change /veh EBF3 (11725865_a_at) / RFU CAMK2N1 (11719241_x_at) / Fold change /veh CAMK2N1 (11719241_x_at) / RFU C5orf56 (11738088_a_at) / Fold change /veh C5orf56 (11738088_a_at) / RFU OLFML3 (11715873_a_at) / Fold change /veh OLFML3 (11715873_a_at) / RFU LOC100653217 /// NTM (11731650_a_at) / Fold change /veh LOC100653217 /// NTM (11731650_a_at) / RFU MAPK11 (11762145_a_at) / Fold change /veh MAPK11 (11762145_a_at) / RFU FIZ1 (11724087_x_at) / Fold change /veh FIZ1 (11724087_x_at) / RFU OASL (11726364_x_at) / Fold change /veh OASL (11726364_x_at) / RFU SOX15 (11748057_x_at) / Fold change /veh SOX15 (11748057_x_at) / RFU CD79A (11719716_a_at) / Fold change /veh CD79A (11719716_a_at) / RFU HIST1H1D (11736915_at) / Fold change /veh HIST1H1D (11736915_at) / RFU CASKIN2 (11723855_a_at) / Fold change /veh CASKIN2 (11723855_a_at) / RFU LOC730098 (11760151_x_at) / Fold change /veh LOC730098 (11760151_x_at) / RFU OR4N2 (11742367_at) / Fold change /veh OR4N2 (11742367_at) / RFU PRRT2 (11749266_a_at) / Fold change /veh PRRT2 (11749266_a_at) / RFU SNX32 (11753110_a_at) / Fold change /veh SNX32 (11753110_a_at) / RFU CDHR5 (11726645_a_at) / Fold change /veh CDHR5 (11726645_a_at) / RFU RCAN1 (11760418_a_at) / Fold change /veh RCAN1 (11760418_a_at) / RFU FAM167A (11723789_a_at) / Fold change /veh FAM167A (11723789_a_at) / RFU FAM26E (11764081_at) / Fold change /veh FAM26E (11764081_at) / RFU ISYNA1 (11749810_s_at) / Fold change /veh ISYNA1 (11749810_s_at) / RFU ACY1 (11761880_at) / Fold change /veh ACY1 (11761880_at) / RFU 11764098_at / Fold change /veh 11764098_at / RFU SAMD14 (11745864_x_at) / Fold change /veh SAMD14 (11745864_x_at) / RFU NPB (11741838_a_at) / Fold change /veh NPB (11741838_a_at) / RFU TMPRSS6 (11731388_a_at) / Fold change /veh TMPRSS6 (11731388_a_at) / RFU KRTAP10-2 (11738614_at) / Fold change /veh KRTAP10-2 (11738614_at) / RFU ARHGAP8 /// PRR5-ARHGAP8 (11727945_x_at) / Fold change /veh ARHGAP8 /// PRR5-ARHGAP8 (11727945_x_at) / RFU KRTAP5-7 /// NADSYN1 (11734609_at) / Fold change /veh KRTAP5-7 /// NADSYN1 (11734609_at) / RFU RASL12 (11751679_a_at) / Fold change /veh RASL12 (11751679_a_at) / RFU CDKN2B (11736163_a_at) / Fold change /veh CDKN2B (11736163_a_at) / RFU PRF1 (11729649_at) / Fold change /veh PRF1 (11729649_at) / RFU, ZNF638 /// ZNF638-IT1 / Fold change vs veh, ZNF638 /// ZNF638-IT1 / RFU, PANK3 / Fold change vs veh, PANK3 / RFU, SH3YL1 / Fold change vs veh, SH3YL1 / RFU, ZEB2 / Fold change vs veh, ZEB2 / RFU, NRIP1 / Fold change vs veh, NRIP1 / RFU, PTTG1IP / Fold change vs veh, PTTG1IP / RFU, CAPN2 / Fold change vs veh, CAPN2 / RFU, MED14 / Fold change vs veh, MED14 / RFU, SNORA58 / Fold change vs veh, SNORA58 / RFU, C1orf63 / Fold change vs veh, C1orf63 / RFU, LRRFIP1 / Fold change vs veh, LRRFIP1 / RFU, NDUFAF7 / Fold change vs veh, NDUFAF7 / RFU, SLC12A2 / Fold change vs veh, SLC12A2 / RFU, IBTK / Fold change vs veh, IBTK / RFU, ESF1 / Fold change vs veh, ESF1 / Fold change vs veh, TMEM50B / RFU, TAOK1 / Fold change vs veh, TAOK1 / RFU, ACBD3 / Fold change vs veh, ACBD3 / RFU, TMA16 / Fold change vs veh, TMA16 / RFU, RWDD3 / Fold change vs veh, RWDD3 / RFU, BCAT1 / Fold change vs veh, BCAT1 / RFU, EDEM3 / Fold change vs veh, EDEM3 / RFU, TMEM33 / Fold change vs veh, TMEM33 / RFU, WDR75 / Fold change vs veh, WDR75 / RFU, AHCTF1 / Fold change vs veh, AHCTF1 / RFU, TFRC / Fold change vs veh, TFRC / RFU, ZDHHC17 / Fold change vs veh, ZDHHC17 / RFU, NOM1 / Fold change vs veh, NOM1 / RFU, ARL8B / Fold change vs veh, ARL8B / RFU, ZBTB11 / Fold change vs veh, ZBTB11 / RFU, TAMM41 / Fold change vs veh, TAMM41 / RFU, KIAA1704 /// LOC100996395 / Fold change vs veh, KIAA1704 /// LOC100996395 / RFU, ING1 / Fold change vs veh, ING1 / RFU, TRMT61B / Fold change vs veh, TRMT61B / RFU, FUBP3 / Fold change vs veh, FUBP3 / RFU, TP53 / Fold change vs veh, TP53 / RFU, TNKS2 / Fold change vs veh, TNKS2 / RFU, ZFP14 / Fold change vs veh, ZFP14 / RFU, ACTR2 / Fold change vs veh, ACTR2 / RFU, PPP3R1 / Fold change vs veh, PPP3R1 / RFU, PIK3R1 / Fold change vs veh, PIK3R1 / RFU, HNRNPA1 / Fold change vs veh, HNRNPA1 / RFU, RNF170 / Fold change vs veh, RNF170 / RFU, ZNF28 / Fold change vs veh, ZNF28 / RFU, RNGTT / Fold change vs veh, RNGTT / RFU, OGT / Fold change vs veh, OGT / RFU, BRD1 / Fold change vs veh, BRD1 / RFU, MARS / Fold change vs veh, MARS / RFU, ZNF655 / Fold change vs veh, ZNF655 / RFU, FAHD1 / Fold change vs veh, FAHD1 / RFU, BDP1 / Fold change vs veh, BDP1 / RFU, LRRCC1 / Fold change vs veh, LRRCC1 / RFU, ARID1A / Fold change vs veh, ARID1A / RFU, ZNF146 / Fold change vs veh, ZNF146 / RFU, ZNF330 / Fold change vs veh, ZNF330 / RFU, GPN3 / Fold change vs veh, GPN3 / RFU, C9orf123 / Fold change vs veh, C9orf123 / RFU, N4BP2L2 / Fold change vs veh, N4BP2L2 / RFU, ARFIP1 / Fold change vs veh, ARFIP1 / RFU, FAM179B / Fold change vs veh, FAM179B / RFU, BCL10 / Fold change vs veh, BCL10 / RFU, UHRF1BP1L / Fold change vs veh, UHRF1BP1L / RFU, BET1 / Fold change vs veh, BET1 / RFU, CNOT2 / Fold change vs veh, CNOT2 / RFU, ZNF268 / Fold change vs veh, ZNF268 / Fold change vs veh, ZNF507 / RFU, DGCR2 / Fold change vs veh, DGCR2 / RFU, WDSUB1 / Fold change vs veh, WDSUB1 / Fold change vs veh, HSP90B1 /// MIR3652 / RFU, ADSS / Fold change vs veh, ADSS / RFU, GK / Fold change vs veh, GK / RFU, ZNF148 / Fold change vs veh, ZNF148 / RFU, TAF9 / Fold change vs veh, TAF9 / RFU, SLC1A5 / Fold change vs veh, SLC1A5 / RFU, SLMO2 / Fold change vs veh, SLMO2 / RFU, ABCC4 / Fold change vs veh, ABCC4 / RFU, LOC101060439 /// RAP1B / Fold change vs veh, LOC101060439 /// RAP1B / RFU, RFX7 / Fold change vs veh, RFX7 / RFU, GTPBP10 / Fold change vs veh, GTPBP10 / RFU, CNEP1R1 / Fold change vs veh, CNEP1R1 / RFU, BIVM-ERCC5 /// ERCC5 / Fold change vs veh, BIVM-ERCC5 /// ERCC5 / RFU, ILF3 / Fold change vs veh, ILF3 / RFU 11762660_at / Fold change /veh 11762660_at / RFU VCAN (11757783_s_at) / Fold change /veh VCAN (11757783_s_at) / RFU DDX43 (11728927_at) / Fold change /veh DDX43 (11728927_at) / RFU KRT8 (11758188_x_at) / Fold change /veh KRT8 (11758188_x_at) / RFU NKD1 (11759106_at) / Fold change /veh NKD1 (11759106_at) / RFU SRD5A1 (11742802_a_at) / Fold change /veh SRD5A1 (11742802_a_at) / RFU TPSAB1 /// TPSB2 (11721975_s_at) / Fold change /veh TPSAB1 /// TPSB2 (11721975_s_at) / RFU GSTM3 (11746129_a_at) / Fold change /veh GSTM3 (11746129_a_at) / RFU IL23R (11737362_x_at) / Fold change /veh IL23R (11737362_x_at) / RFU TMEM51 (11727254_a_at) / Fold change /veh TMEM51 (11727254_a_at) / RFU PIWIL2 (11732686_x_at) / Fold change /veh PIWIL2 (11732686_x_at) / RFU ORM1 (11744905_x_at) / Fold change /veh ORM1 (11744905_x_at) / RFU CCDC152 (11743942_at) / Fold change /veh CCDC152 (11743942_at) / RFU ECM1 (11717891_a_at) / Fold change /veh ECM1 (11717891_a_at) / RFU IL23R (11748794_a_at) / Fold change /veh IL23R (11748794_a_at) / RFU TNFAIP8L3 (11732012_x_at) / Fold change /veh TNFAIP8L3 (11732012_x_at) / RFU MBOAT4 (11741988_at) / Fold change /veh MBOAT4 (11741988_at) / RFU 11764193_at / Fold change /veh 11764193_at / RFU TMEM53 (11763286_at) / Fold change /veh TMEM53 (11763286_at) / RFU MAGEB2 (11727129_at) / Fold change /veh MAGEB2 (11727129_at) / RFU TMEM200A (11744735_a_at) / Fold change /veh TMEM200A (11744735_a_at) / RFU CCDC152 (11751479_a_at) / Fold change /veh CCDC152 (11751479_a_at) / RFU FAM211A (11726209_a_at) / Fold change /veh FAM211A (11726209_a_at) / RFU RGS16 (11746705_a_at) / Fold change /veh RGS16 (11746705_a_at) / RFU VCAN (11755009_s_at) / Fold change /veh VCAN (11755009_s_at) / RFU RHOB (11743442_s_at) / Fold change /veh RHOB (11743442_s_at) / RFU RGS16 (11720943_a_at) / Fold change /veh RGS16 (11720943_a_at) / RFU RGS16 (11720944_at) / Fold change /veh RGS16 (11720944_at) / RFU, VPS4B / Fold change vs veh, VPS4B / RFU, CREB1 / Fold change vs veh, CREB1 / RFU, DNAJC13 / Fold change vs veh, DNAJC13 / RFU, GNAQ / Fold change vs veh, GNAQ / RFU, CDK5R1 / Fold change vs veh, CDK5R1 / RFU, ZRANB3 / Fold change vs veh, ZRANB3 / RFU, CUL4A / Fold change vs veh, CUL4A / RFU, CCNY / Fold change vs veh, CCNY / RFU, UFL1 / Fold change vs veh, UFL1 / RFU, COG3 / Fold change vs veh, COG3 / RFU, DIAPH2 / Fold change vs veh, DIAPH2 / RFU, SKA2 / Fold change vs veh, SKA2 / RFU, AFF3 / Fold change vs veh, AFF3 / RFU, LMF1 / Fold change vs veh, LMF1 / RFU, IPO11 / Fold change vs veh, IPO11 / RFU, DFFB / Fold change vs veh, DFFB / RFU, FOXP1 / Fold change vs veh, FOXP1 / RFU, CARD8 / Fold change vs veh, CARD8 / RFU, STRN3 / Fold change vs veh, STRN3 / RFU, ADK / Fold change vs veh, ADK / RFU, RASSF2 / Fold change vs veh, RASSF2 / RFU, WIPF1 / Fold change vs veh, WIPF1 / RFU, LARP1B / Fold change vs veh, LARP1B / RFU, RASA1 / Fold change vs veh, RASA1 / RFU, RB1 / Fold change vs veh, RB1 / RFU, PPFIA1 / Fold change vs veh, PPFIA1 / RFU, MAT2A / Fold change vs veh, MAT2A / RFU, CCT5 / Fold change vs veh, CCT5 / RFU, WDR92 / Fold change vs veh, WDR92 / RFU, CUX1 / Fold change vs veh, CUX1 / RFU, TTC7A / Fold change vs veh, TTC7A / RFU, TMEM135 / Fold change vs veh, TMEM135 / RFU, DEPTOR / Fold change vs veh, DEPTOR / RFU, CPM / Fold change vs veh, CPM / RFU, DNAJB6 / Fold change vs veh, DNAJB6 / RFU, CACNA2D3 / Fold change vs veh, CACNA2D3 / RFU, DTX4 / Fold change vs veh, DTX4 / RFU, TFCP2 / Fold change vs veh, TFCP2 / RFU, GMCL1 /// GMCL1P1 / Fold change vs veh, GMCL1 /// GMCL1P1 / RFU, AEBP2 / Fold change vs veh, AEBP2 / RFU, SNHG1 /// SNORD22 /// SNORD25 /// SNORD26 /// SNORD27 /// SNORD28 /// SNORD29 /// SNORD31 / Fold change vs veh, SNHG1 /// SNORD22 /// SNORD25 /// SNORD26 /// SNORD27 /// SNORD28 /// SNORD29 /// SNORD31 / Fold change (Aza/veh), C12orf56 (ProbeSet 11735607_a_at) / Fold change (ACY-1035/veh), C12orf56 (ProbeSet 11735607_a_at) / Fold change (Aza/veh), FGFR1OP (ProbeSet 11751329_s_at) / Fold change (ACY-1035/veh), FGFR1OP (ProbeSet 11751329_s_at) / Fold change (Aza/veh), VPS36 (ProbeSet 11739960_a_at) / Fold change (ACY-1035/veh), VPS36 (ProbeSet 11739960_a_at) / RFU SYPL1 (11715823_x_at) / Fold change /veh SYPL1 (11715823_x_at) / RFU IGFBP7 (11715501_s_at) / Fold change /veh IGFBP7 (11715501_s_at) / RFU REEP3 (11722064_at) / Fold change /veh REEP3 (11722064_at) / RFU IGLL1 (11728026_x_at) / Fold change /veh IGLL1 (11728026_x_at): dose or concentration left out as unconfirmed
Settings: ProbeSet 11749551_a_at; LIST B

Nc1ccc(-c2cccs2)cc1NC(=O)c1ccc2c(c1)cc(C1CC1)n2CCN1CCOCC1 [ACY-1035]
Fold change vs veh, RNGTT: 0.96
